Laboratory results reported in patent publication US8735388B2, “Heterocyclic compounds with affinity to muscarinic receptors” (Abbvie B. V. A., priority 2007, dated 2014).
Where two headings read alike, the source gives them in different places.

Tests used:
[1] = target: T1, Muscarine M2 (GPCR-A-MA-ACH M2) (Homo sapiens, UniProt P08172); experiment: Muscarine M2 receptor binding; details: human M2, CHO cells; receptor binding
T1 construct: expressed in transfected cells; host or cells: CHO cells
T1 sequence (P08172 1-466): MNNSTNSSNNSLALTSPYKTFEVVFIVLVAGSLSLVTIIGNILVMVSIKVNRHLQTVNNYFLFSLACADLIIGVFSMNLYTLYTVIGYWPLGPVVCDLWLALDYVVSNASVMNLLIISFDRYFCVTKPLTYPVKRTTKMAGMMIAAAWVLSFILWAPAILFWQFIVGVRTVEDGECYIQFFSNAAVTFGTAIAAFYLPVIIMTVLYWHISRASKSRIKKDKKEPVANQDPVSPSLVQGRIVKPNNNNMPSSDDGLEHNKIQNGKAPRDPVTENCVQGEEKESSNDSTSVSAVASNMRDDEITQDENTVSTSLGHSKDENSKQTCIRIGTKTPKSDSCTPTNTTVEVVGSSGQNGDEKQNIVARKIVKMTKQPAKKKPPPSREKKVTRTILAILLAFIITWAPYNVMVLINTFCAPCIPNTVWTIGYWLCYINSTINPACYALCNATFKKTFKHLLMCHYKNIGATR

[2] = target: T2, Muscarine M4 (GPCR-A-MA-ACH M4) (Homo sapiens, UniProt P08173); experiment: Muscarine M4 cell-based functional assay (CHO cells, Ca2+ - Aequorin luminescence); details: human M4, CHO cells; agonist mode, reference agonist oxotremorine; read-out: Cell funct. Musc. M4 Agonism pEC50 (converted)
T2 construct: expressed in transfected cells; host or cells: CHO cells
T2 sequence (P08173 1-479): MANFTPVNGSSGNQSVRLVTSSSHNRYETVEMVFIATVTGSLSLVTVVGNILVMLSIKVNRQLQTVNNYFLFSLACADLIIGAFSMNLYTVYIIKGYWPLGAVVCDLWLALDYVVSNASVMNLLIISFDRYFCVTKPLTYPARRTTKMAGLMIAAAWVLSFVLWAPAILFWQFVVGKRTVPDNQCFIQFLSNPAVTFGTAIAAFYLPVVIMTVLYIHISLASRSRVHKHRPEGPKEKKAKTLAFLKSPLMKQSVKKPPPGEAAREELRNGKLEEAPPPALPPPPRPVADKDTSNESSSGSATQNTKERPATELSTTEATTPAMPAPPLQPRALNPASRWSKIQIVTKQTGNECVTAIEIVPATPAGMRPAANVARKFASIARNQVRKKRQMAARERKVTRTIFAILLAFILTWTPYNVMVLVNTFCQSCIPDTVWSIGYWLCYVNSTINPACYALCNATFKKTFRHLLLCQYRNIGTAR
In short: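 CHO cells expressing human M4 were exposed to compound, with Ca2+ response read by aequorin luminescence. Compounds were first tested at 1 μM, then at 10-fold lower concentrations if active; stimulation or inhibition was relative to the reference agonist. EC50/IC50 came from Hill-equation fits.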

[3] = target: T3, Muscarine M2 (GPCR-A-MA-ACH M2) (Cavia porcellus, UniProt H0VRN8); experiment: Muscarine M2 functional assay, isolated organ (left atrium, electrically paced), agonist and antagonist mode; set-up: species or system Guinea Pig; details: for EC50: read-out: Cell funct. Musc. M2 Agonism pEC50 (converted)
T3 construct: from tissue; host or cells: guinea pig left atrium (electrically paced)
T3 sequence (H0VRN8 1-466): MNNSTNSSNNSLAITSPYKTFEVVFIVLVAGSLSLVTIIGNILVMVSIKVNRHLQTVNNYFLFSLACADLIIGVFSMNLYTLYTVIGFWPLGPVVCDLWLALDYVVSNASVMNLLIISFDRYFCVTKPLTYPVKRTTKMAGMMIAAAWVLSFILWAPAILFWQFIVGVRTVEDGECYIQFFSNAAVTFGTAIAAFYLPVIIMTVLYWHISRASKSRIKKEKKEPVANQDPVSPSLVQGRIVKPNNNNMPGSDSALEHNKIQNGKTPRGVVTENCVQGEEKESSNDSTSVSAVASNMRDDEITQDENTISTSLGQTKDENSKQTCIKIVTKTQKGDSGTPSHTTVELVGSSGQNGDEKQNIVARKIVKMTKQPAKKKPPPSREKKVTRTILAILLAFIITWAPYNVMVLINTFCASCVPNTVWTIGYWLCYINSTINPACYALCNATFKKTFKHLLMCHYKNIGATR

[4] = target: T2, Muscarine M4 (GPCR-A-MA-ACH M4); experiment: Muscarine M4 receptor binding, 3H-4DAMP; details: human M4, CHO cells, ligand 0.2 nM, 60 min/22° C., read-out: RB Musc. M4 3H-DAMP pKi (converted)
In short: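 Human M1 ([3H]-pirenzepine), M3, and M4 ([3H]-4DAMP or [3H]-oxotremorine) receptor preparations incubated with radioligand and compound, first at 10 μM, then at 10-fold lower concentrations if inhibition exceeded 40%. Bound ligand separated by glass-fibre filtration and counted by scintillation. IC50 from Hill fit, converted to Ki via Cheng-Prusoff, reported as pKi.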

[5] = read-out: Cell funct. Musc. M2 Antagonism pA2 (converted)

Compound	Ki [1]	EC50 [2]	EC50 [3]	Kb [3, 5]	Ki [4]	Kb [3]
CN1CCC=C(c2n[nH]cc2SCCC=C(F)F)C1 [Compound 22J, 3-[4-(4,4-Difluoro-but-3enylsulfanyl)-1H-pyrazol-3-yl]-1,2,5,6-tetrahydro-1-methylpyridine]	3.16 µM	0.251 µM	> 1 µM	> 1 µM	0.251 µM	
C=CCCCSc1c[nH]nc1C1=CCCN(C)C1 [Compound 22L]	2 µM	0.0631 µM	> 1 µM	> 1 µM	0.1 µM	
CCOCCSc1c[nH]nc1C1=CCCN(C)C1 [Compound 22O, 3-[4-(2-Ethoxy-ethylsulfanyl)-1H-pyrazol-3-yl]-1,2,5,6-tetrahydro-1-methylpyridine]	10 µM	0.631 µM	> 1 µM		0.794 µM	0.02 µM
C=CCCCOc1c[nH]nc1C1=CCCN(C)C1 [Compound 33F, 3-(4-Pent-4-enyloxy-1H-pyrazol-3-yl)-1,2,5,6-tetrahydro-1-methylpyridine]	5.01 µM	0.794 µM	> 1 µM	> 1 µM	0.501 µM	
CCCCCOc1c[nH]nc1C1=CCCN(C)C1 [Compound 33G, 3-(4-Pentyloxy-1H-pyrazol-3-yl)-1,2,5,6-tetrahydro-1-methylpyridine]	3.98 µM	0.631 µM	> 1 µM	> 1 µM	0.2 µM	
